Consider three compounds from patent publication US12576094B2, “Combination cannabinoid-phenylethanoid formulation for treatment of inflammation and methods related thereto” (Canole LLC, priority 2019, dated 2026).

The structures appear in SMILES notation.

The test system of one data set is C-28/I2 chondrocytes. In words: toxicity screen to establish maximum tolerable concentrations in chondrocytes. The source says:
A clonal derivative of ATCC-certified normal chondrocytes was used for a study to determine cytokine expression. The parent line was originally derived from costal cartilage of an adolescent person. The cell line used is C-28/I2 accession number CVCL_0187. The cells were immortalized via retroviral vector-mediated SV40 Large T antigen expression. Cells were confirmed negative for mycoplasma contamination and genotyped by STR analysis to verify cell identity. This cell line is widely used as a model for studying normal and pathological cartilage repair mechanisms and inflammation.
The cells were cultured at 37° C. with 5% CO2, DMEM/F12 media supplemented with 10% heat-inactivated fetal bovine serum. Antimicrobials were not added to the media. Cells were maintained between 40 and 80% confluency to avoid terminal differentiation. Cells used for the experiments had been passaged no more than ten times prior to each experiment.
A series of pilot studies were performed to design the final full-scale experiment. First, a toxicity screen for each test compound was performed to establish maximum tolerable concentrations in this model system. Second, assays were run to establish the optimal means of inducing a pro-inflammatory state in the cell culture system. Third, conditions were tested to set the most favorable dilution scheme in order to maintain samples within the linear range of detection for each analyte. To establish the test concentrations for each test compound, chondrocytes were treated with a serial dilution of each compound, for 24 and 48 hours under serum free conditions. Oleocanthal or CBD were tested at two-fold dilutions down from a concentration of 50 micromolar (μM).

In data set [1] the test system is IL-13 production by chondrocytes (C-28/I2). In words: cytokine array of conditioned media from IL1β-stimulated chondrocytes: IL-13. The data set is classed as cell-based, human. Particulars: Moderate level (2.00 μM) of CBD alone, IL1β 10 ng/ml, 24 hours, no serum, FIG. 2. The source says:
Antimicrobials were not added to the media.
Three wells were utilized per sample condition.

In the data set on C-28/I2 chondrocytes (chondrocytes, 24 hours post-treatment, serum free), `C=C(C)[C@@H]1CCC(C)=C[C@H]1c1c(O)cc(CCCCC)cc1O` [CBD, cannabidiol] gave a maximum tolerable concentration of 6 µM. For the same compound, the “generated amount of IL13” value in data set [1] is given as “greatly reduced”. The compound `O=C(O)c1cccnc1` [niacin, niacin/nicotinic acid] gave a maximum tolerable concentration in the data set on C-28/I2 chondrocytes (human, 24 h) of 1000 µM. The compound `C/C=C(/C=O)[C@@H](CC=O)CC(=O)OCCc1ccc(O)cc1` [oleocanthal] yielded a maximum tolerable concentration in the data set with C-28/I2 chondrocytes (human, 24 h) of 6 µM.
